This note sets out measurements from publication PMC8582824, “Targeting DDX3X Helicase Activity with BA103 Shows Promising Therapeutic Effects in Preclinical Glioblastoma Models” (Cancers, 2021).

Where two headings read alike, the source gives them in different places.

The data set in a line: PK and biodistribution in BALB/c mice. The class given is in vivo. The following applies: for half-life: 50 mg/kg. As for the experimental part:
Figure 8 PK and biodistribution of BA103 in BALB/c mice at the single dose of 50 mg/kg i.p. (A) Plasmatic distribution and PK parameters. Concentration levels ± SD of BA103 in (B) kidneys, (C) liver, and (D) brain. TEXT PRINTED IN THE PICTURE: (A) no label printed: t1/2 (min): 299.6; Cmax (μg/ml): 18.2; AUC 0-t (μg/ml*min): 1817.6; AUC 0-inf_obs (μg/ml*min): 1850.7; Vz/F_obs ((mg/kg)/(μg/ml)): 11.7; Cl/F_obs ((mg/kg)/(μg/ml)/min): 0.1 DOUBTS OF THE COPYIST ABOUT THIS PICTURE: Panel A table: the picture prints no substance label / Panel A table, Vz/F_obs and Cl/F_obs: the underscore may be hidden by the table line (could be 'Vz/F obs', 'Cl/F obs')
Thus, preliminary PK and biodistribution studies were performed on two groups of BALB/c mice (CTRL and BA103-treated) at the single intraperitoneal (i.p.) dose of 50 mg/kg. BA103 was slowly eliminated from plasma, with a half time (t1/2) of about 5 h. […] Even if the PK analysis was conducted in healthy mice, with an intact BBB, the data are of great importance, since the majority of drugs are unable to reach the tumor environment due to their low permeability.

Setting [1] is: BALB/c, mouse, ip, plasma, single dose 50 mg/kg i.p.

Under setting [1], `CCCCc1cn(-c2ccc(NC(=O)Nc3ccccc3C(F)(F)F)cc2)nn1` [BA103, 1-(4-(4-Butyl-1H-1,2,3-triazol-1-yl)phenyl)-3-(2-(trifluoromethyl)phenyl)urea] showed an AUC(0-t) of 30300 ng·h/mL and a Cmax of 18200 ng/mL. Where the note is “BALB/c, mouse, ip, plasma, single dose 50 mg/kg i.p., read-out: AUC 0-inf_obs (converted)”, the AUC(0-inf) was 30800 ng·h/mL. In addition, the half-life (BALB/c, mouse, plasma, ip, plasma, single dose 50 mg/kg i.p., read-out: t1/2) turned out to be 4.99 h. Besides, under “BALB/c, mouse, plasma, ip, single dose 50 mg/kg i.p., read-out: half time (t1/2) of elimination from plasma (converted)”, the half-life was around 5 h. For the setting “BALB/c, mouse, plasma, ip, single dose 50 mg/kg i.p.”, this compound had a CL/F of 100 mL/min/kg. Besides, the Vd/F (BALB/c, mouse, plasma, ip, single dose 50 mg/kg i.p., read-out: Vz/F_obs) was 11.7 L/kg. Moreover, the “brain distribution / blood–brain barrier crossing” value (healthy mice, 50 mg/kg i.p.) was “ability to cross the blood–brain barrier”.
